Laboratory results: patent US20230021483A1, “[…] […] METHOD AND CLASSIFICATION OF PHARMACEUTICAL COMPONENTS BY USING TRANSCRIPTOMES” (National Institutes of Biomedical Innovation, Health and …, priority 2016, published 2023)

Tests used:
[1] = test system: adjuvant-associated biological themes in LV, SP, LN
Procedure, shortened: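 Per-mouse whole-organ transcriptomes; genes with eij/ei(c)>2.0 tested for theme enrichment via TargetMine (GO, KEGG, Reactome, others), Fisher's exact test, Holm-Bonferroni correction. Themes shared by all three mice kept at p<0.05, using the smallest p. Score per adjuvant-associated term = Σ−log(p) of matching themes.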

[2] = test system: LV, SP and LNs; experiment: Whole organ transcriptome across organs (adjuvant gene space): gene responses and adjuvant grouping; format: in vivo, C57BL/6 mice

CC(O)COC[C@H]1O[C@@H]2O[C@H]3[C@H](O)[C@@H](O)[C@@H](O[C@H]4[C@H](O)[C@@H](O)[C@@H](O[C@H]5[C@H](O)[C@@H](O)[C@@H](O[C@H]6[C@H](O)[C@@H](O)[C@@H](O[C@H]7[C@H](O)[C@@H](O)[C@@H](O[C@H]8[C@H](O)[C@@H](O)[C@@H](O[C@H]1[C@H](O)[C@H]2O)O[C@@H]8COCC(C)O)O[C@@H]7COCC(C)O)O[C@@H]6COCC(C)O)O[C@@H]5COCC(C)O)O[C@@H]4COCC(C)O)O[C@@H]3COCC(C)O (stereo partly drawn) [bCD, Hydroxypropyl-beta-cyclodextrin]
GO annotation: Cytokine-cytokine receptor interaction (Term: cytokine) ([1]; LV, ID): 4.24 | GO annotation: Cytokine-cytokine receptor interaction|Endocytosis (Term: cytokine) ([1]; LV, ID): 7.76 | GO annotation: I-kappaB kinase/NF-kappaB signaling (Term: NF-kappa B signaling pathway) ([1]; LV, ID): 4.21 | GO annotation: NF-kappa B signaling pathway (Term: NF-kappa B signaling pathway) ([1]; LV, ID): 6.86 | GO annotation: TNF signaling pathway (Term: TNF signaling pathway) ([1]; LV, ID): 10.6 | GO annotation: activation of immune response (Term: immune response) ([1]; LV, ID): 0 | GO annotation: activation of innate immune response (Term: innate immune response) ([1]; LV, ID): 0 | GO annotation: acute inflammatory response (Term: inflammatory response) ([1]; LV, ID): 0 | GO annotation: adaptive immune response (Term: adaptive immune response) ([1]; LV, ID): 0 | GO annotation: apoptotic process (Term: apoptosis) ([1]; LV, ID): 0 | GO annotation: apoptotic signaling pathway (Term: apoptosis) ([1]; LV, ID): 0 | GO annotation: cell chemotaxis (Term: chemotaxis) ([1]; LV, ID): 5.73 | GO annotation: cell death (Term: cell death) ([1]; LV, ID): 5.8 | GO annotation: cell migration (Term: migration) ([1]; LV, ID): 0 | GO annotation: cellular response to cytokine stimulus (Term: cytokine) ([1]; LV, ID): 0 | GO annotation: cellular response to interferon-alpha (Term: IFN alpha) ([1]; LV, ID): 0 | GO annotation: cellular response to stress (Term: stress) ([1]; LV, ID): 0 | GO annotation: chemokine production (Term: chemokine) ([1]; LV, ID): 0 | GO annotation: chemokine-mediated signaling pathway (Term: chemokine) ([1]; LV, ID): 0 | GO annotation: chemotaxis (Term: chemotaxis) ([1]; LV, ID): 0 | GO annotation: cytokine biosynthetic process (Term: cytokine) ([1]; LV, ID): 0 | GO annotation: cytokine metabolic process (Term: cytokine) ([1]; LV, ID): 0 | GO annotation: cytokine production (Term: cytokine) ([1]; LV, ID): 3.82 | GO annotation: cytokine secretion (Term: cytokine) ([1]; LV, ID): 0 | GO annotation: cytokine-mediated signaling pathway (Term: cytokine) ([1]; LV, ID): 0 | GO annotation: death (Term: cell death) ([1]; LV, ID): 0 | GO annotation: defense response (Term: defense response) ([1]; LV, ID): 8.51 | GO annotation: defense response to Gram-positive bacterium (Term: defense response) ([1]; LV, ID): 0 | GO annotation: defense response to bacterium (Term: defense response) ([1]; LV, ID): 0 | GO annotation: defense response to other organism (Term: defense response) ([1]; LV, ID): 0 | GO annotation: defense response to protozoan (Term: defense response) ([1]; LV, ID): 0 | GO annotation: defense response to virus (Term: defense response) ([1]; LV, ID): 0 | GO annotation: granulocyte chemotaxis (Term: chemotaxis) ([1]; LV, ID): 0 | GO annotation: granulocyte migration (Term: migration) ([1]; LV, ID): 0 | GO annotation: immune response (Term: immune response) ([1]; LV, ID): 0 | GO annotation: immune response-activating signal transduction (Term: immune response) ([1]; LV, ID): 0 | GO annotation: immune response-regulating signaling pathway (Term: immune response) ([1]; LV, ID): 0 | GO annotation: inflammatory response (Term: inflammatory response) ([1]; LV, ID): 10.9 | GO annotation: innate immune response (Term: innate immune response) ([1]; LV, ID): 0 | GO annotation: innate immune response-activating signal transduction (Term: innate immune response) ([1]; LV, ID): 0 | GO annotation: interferon-alpha production (Term: IFN alpha) ([1]; LV, ID): 0 | GO annotation: intrinsic apoptotic signaling pathway (Term: apoptosis) ([1]; LV, ID): 0 | GO annotation: leukocyte chemotaxis (Term: chemotaxis) ([1]; LV, ID): 0 | GO annotation: leukocyte migration (Term: migration) ([1]; LV, ID): 0 | GO annotation: leukocyte migration involved in inflammatory response (Term: inflammatory response) ([1]; LV, ID): 0 | GO annotation: lymphocyte chemotaxis (Term: chemotaxis) ([1]; LV, ID): 0 | GO annotation: lymphocyte migration (Term: migration) ([1]; LV, ID): 0 | GO annotation: myeloid leukocyte migration (Term: migration) ([1]; LV, ID): 0 | GO annotation: negative regulation of apoptotic process (Term: apoptosis) ([1]; LV, ID): 0 | GO annotation: negative regulation of cell death (Term: cell death) ([1]; LV, ID): 0 | GO annotation: negative regulation of cytokine production (Term: cytokine) ([1]; LV, ID): 0 | GO annotation: negative regulation of defense response (Term: defense response) ([1]; LV, ID): 0 | GO annotation: negative regulation of immune response (Term: immune response) ([1]; LV, ID): 0 | GO annotation: negative regulation of innate immune response (Term: innate immune response) ([1]; LV, ID): 0 | GO annotation: negative regulation of programmed cell death (Term: cell death) ([1]; LV, ID): 0 | GO annotation: neutrophil chemotaxis (Term: chemotaxis) ([1]; LV, ID): 0 | GO annotation: neutrophil migration (Term: migration) ([1]; LV, ID): 0 | GO annotation: positive regulation of I-kappaB kinase/NF-kappaB signaling (Term: NF-kappa B signaling pathway) ([1]; LV, ID): 0 | GO annotation: positive regulation of adaptive immune response (Term: adaptive immune response) ([1]; LV, ID): 0 | GO annotation: positive regulation of apoptotic process (Term: apoptosis) ([1]; LV, ID): 0 | GO annotation: positive regulation of cell death (Term: cell death) ([1]; LV, ID): 0 | GO annotation: positive regulation of cell migration (Term: migration) ([1]; LV, ID): 0 | GO annotation: positive regulation of chemokine production (Term: chemokine) ([1]; LV, ID): 0 | GO annotation: positive regulation of chemotaxis (Term: chemotaxis) ([1]; LV, ID): 0 | GO annotation: positive regulation of cytokine biosynthetic process (Term: cytokine) ([1]; LV, ID): 0 | GO annotation: positive regulation of cytokine production (Term: cytokine) ([1]; LV, ID): 0 | GO annotation: positive regulation of defense response (Term: defense response) ([1]; LV, ID): 0 | GO annotation: positive regulation of immune response (Term: immune response) ([1]; LV, ID): 0 | GO annotation: positive regulation of inflammatory response (Term: inflammatory response) ([1]; LV, ID): 0 | GO annotation: positive regulation of innate immune response (Term: innate immune response) ([1]; LV, ID): 0 | GO annotation: positive regulation of interferon-alpha production (Term: IFN alpha) ([1]; LV, ID): 0 | GO annotation: positive regulation of leukocyte chemotaxis (Term: chemotaxis) ([1]; LV, ID): 0 | GO annotation: positive regulation of leukocyte migration (Term: migration) ([1]; LV, ID): 0 | GO annotation: positive regulation of programmed cell death (Term: cell death) ([1]; LV, ID): 0 | GO annotation: positive regulation of response to wounding (Term: wounding) ([1]; LV, ID): 0 | GO annotation: positive regulation of tumor necrosis factor superfamily cytokine (Term: cytokine) ([1]; LV, ID): 0 | GO annotation: production of molecular mediator of immune response (Term: immune response) ([1]; LV, ID): 0 | GO annotation: programmed cell death (Term: cell death) ([1]; LV, ID): 0 | GO annotation: regulation of I-kappaB kinase/NF-kappaB signaling (Term: NF-kappa B signaling pathway) ([1]; LV, ID): 0 | GO annotation: regulation of adaptive immune response (Term: adaptive immune response) ([1]; LV, ID): 0 | GO annotation: regulation of apoptotic process (Term: apoptosis) ([1]; LV, ID): 0 | GO annotation: regulation of apoptotic signaling pathway (Term: apoptosis) ([1]; LV, ID): 0 | GO annotation: regulation of cell death (Term: cell death) ([1]; LV, ID): 0 | GO annotation: regulation of cell migration (Term: migration) ([1]; LV, ID): 0 | GO annotation: regulation of chemokine production (Term: chemokine) ([1]; LV, ID): 0 | GO annotation: regulation of chemotaxis (Term: chemotaxis) ([1]; LV, ID): 0 | GO annotation: regulation of cytokine biosynthetic process (Term: cytokine) ([1]; LV, ID): 0 | GO annotation: regulation of cytokine production (Term: cytokine) ([1]; LV, ID): 4.06 | GO annotation: regulation of defense response (Term: defense response) ([1]; LV, ID): 6.85 | GO annotation: regulation of defense response to virus (Term: defense response) ([1]; LV, ID): 0 | GO annotation: regulation of defense response to virus by host (Term: defense response) ([1]; LV, ID): 0 | GO annotation: regulation of immune response (Term: immune response) ([1]; LV, ID): 0 | GO annotation: regulation of inflammatory response (Term: inflammatory response) ([1]; LV, ID): 7.33 | GO annotation: regulation of innate immune response (Term: innate immune response) ([1]; LV, ID): 0 | GO annotation: regulation of interferon-alpha production (Term: IFN alpha) ([1]; LV, ID): 0 | GO annotation: regulation of intrinsic apoptotic signaling pathway (Term: apoptosis) ([1]; LV, ID): 0 | GO annotation: regulation of leukocyte chemotaxis (Term: chemotaxis) ([1]; LV, ID): 0 | GO annotation: regulation of leukocyte migration (Term: migration) ([1]; LV, ID): 0 | GO annotation: regulation of programmed cell death (Term: cell death) ([1]; LV, ID): 0 | GO annotation: regulation of response to stress (Term: stress) ([1]; LV, ID): 0 | GO annotation: regulation of response to wounding (Term: wounding) ([1]; LV, ID): 6.31 | GO annotation: regulation of tumor necrosis factor superfamily cytokine production (Term: cytokine) ([1]; LV, ID): 0 | GO annotation: response to cytokine (Term: cytokine) ([1]; LV, ID): 7.77 | GO annotation: response to interferon-alpha (Term: IFN alpha) ([1]; LV, ID): 0 | GO annotation: response to stress (Term: stress) ([1]; LV, ID): 10.4 | GO annotation: response to wounding (Term: wounding) ([1]; LV, ID): 5.85 | GO annotation: taxis (Term: chemotaxis) ([1]; LV, ID): 0 | GO annotation: tumor necrosis factor superfamily cytokine production (Term: cytokine) ([1]; LV, ID): 0 | IFN beta: cellular response to interferon-beta ([1]; LV, ID): 0 | IFN beta: interferon-beta production ([1]; LV, ID): 0 | IFN beta: positive regulation of interferon-beta production ([1]; LV, ID): 0 | IFN beta: regulation of interferon-beta production ([1]; LV, ID): 0 | IFN beta: response to interferon-beta ([1]; LV, ID): 0 | IFN gamma: cellular response to interferon-gamma ([1]; LV, ID): 0 | IFN gamma: interferon-gamma production ([1]; LV, ID): 0 | IFN gamma: regulation of interferon-gamma production ([1]; LV, ID): 0 | IFN gamma: response to interferon-gamma ([1]; LV, ID): 0 | interleukin-6: interleukin-6 production ([1]; LV, ID): 0 | interleukin-6: positive regulation of interleukin-6 production ([1]; LV, ID): 0 | interleukin-6: regulation of interleukin-6 production ([1]; LV, ID): 0 | interleukin-12: interleukin-12 production ([1]; LV, ID): 0 | interleukin-12: positive regulation of interleukin-12 production ([1]; LV, ID): 0 | interleukin-12: regulation of interleukin-12 production ([1]; LV, ID): 0 | GO annotation: adaptive immune response based on somatic recombination of immune receptors built from immunoglobulin superfamily domains (Term: adaptive immune response) ([1]; mouse, in vivo): 0 | GO annotation: regulation of adaptive immune response based on somatic recombination of immune receptors built from immunoglobulin superfamily domains (Term: adaptive immune response) ([1]; mouse, in vivo): 0 | gene expression changes in LV and SP ([2]; 6 h, Table 15, route not given): relatively weaker responses | adjuvant group (cluster) within the adjuvant gene space ([2]; hierarchical clustering, LV, SP and/or LNs): G2
